Results reported in article PMC5540273, “Progress towards a public chemogenomic set for protein kinases and a call for contributions” (PLoS ONE, 2017).

What was measured:
Assay in all cases: KINOMEscan competition binding
AAK1 = AAK1 (Homo sapiens, UniProt Q2M2I8); settings: read-out: %Inh AAK1
AKT1 = AKT1 (Homo sapiens, UniProt P31749); settings: read-out: %Inh AKT1
CSNK1G3 = CSNK1G3 (Homo sapiens, UniProt Q9Y6M4); settings: read-out: %Inh CSNK1G3
DDR2 = target: T1, DDR2 (Homo sapiens, UniProt Q16832); settings: read-out: %Inh DDR2
T1 sequence (Q16832 22-855): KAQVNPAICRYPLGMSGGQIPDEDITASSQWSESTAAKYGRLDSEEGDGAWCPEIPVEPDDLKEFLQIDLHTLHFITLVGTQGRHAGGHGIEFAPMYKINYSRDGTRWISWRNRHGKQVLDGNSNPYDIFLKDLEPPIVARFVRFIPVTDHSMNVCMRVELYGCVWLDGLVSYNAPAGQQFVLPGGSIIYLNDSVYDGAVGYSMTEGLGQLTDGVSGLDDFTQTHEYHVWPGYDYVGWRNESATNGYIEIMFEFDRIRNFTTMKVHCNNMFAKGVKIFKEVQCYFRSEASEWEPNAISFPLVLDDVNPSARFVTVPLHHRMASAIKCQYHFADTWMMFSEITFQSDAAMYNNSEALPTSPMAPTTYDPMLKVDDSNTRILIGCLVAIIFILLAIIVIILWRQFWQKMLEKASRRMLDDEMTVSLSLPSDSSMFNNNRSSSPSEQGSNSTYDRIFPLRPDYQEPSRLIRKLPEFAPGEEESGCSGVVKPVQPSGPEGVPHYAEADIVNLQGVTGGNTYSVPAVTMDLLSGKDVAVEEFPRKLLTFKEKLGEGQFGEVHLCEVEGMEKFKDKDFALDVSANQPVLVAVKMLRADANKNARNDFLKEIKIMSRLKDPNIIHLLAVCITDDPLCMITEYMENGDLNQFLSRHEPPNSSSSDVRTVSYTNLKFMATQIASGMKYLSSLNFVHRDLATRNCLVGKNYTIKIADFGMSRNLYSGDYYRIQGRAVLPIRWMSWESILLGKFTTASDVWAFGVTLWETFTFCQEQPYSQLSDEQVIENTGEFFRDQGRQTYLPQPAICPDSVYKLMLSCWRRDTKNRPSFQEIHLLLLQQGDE

DMPK2 = DMPK2 (Homo sapiens, UniProt Q6DT37); settings: read-out: %Inh DMPK2
EPHB2 = target: T2, EPHB2 (Homo sapiens, UniProt P29323); settings: read-out: %Inh EPHB2
T2 sequence (P29323 19-1055): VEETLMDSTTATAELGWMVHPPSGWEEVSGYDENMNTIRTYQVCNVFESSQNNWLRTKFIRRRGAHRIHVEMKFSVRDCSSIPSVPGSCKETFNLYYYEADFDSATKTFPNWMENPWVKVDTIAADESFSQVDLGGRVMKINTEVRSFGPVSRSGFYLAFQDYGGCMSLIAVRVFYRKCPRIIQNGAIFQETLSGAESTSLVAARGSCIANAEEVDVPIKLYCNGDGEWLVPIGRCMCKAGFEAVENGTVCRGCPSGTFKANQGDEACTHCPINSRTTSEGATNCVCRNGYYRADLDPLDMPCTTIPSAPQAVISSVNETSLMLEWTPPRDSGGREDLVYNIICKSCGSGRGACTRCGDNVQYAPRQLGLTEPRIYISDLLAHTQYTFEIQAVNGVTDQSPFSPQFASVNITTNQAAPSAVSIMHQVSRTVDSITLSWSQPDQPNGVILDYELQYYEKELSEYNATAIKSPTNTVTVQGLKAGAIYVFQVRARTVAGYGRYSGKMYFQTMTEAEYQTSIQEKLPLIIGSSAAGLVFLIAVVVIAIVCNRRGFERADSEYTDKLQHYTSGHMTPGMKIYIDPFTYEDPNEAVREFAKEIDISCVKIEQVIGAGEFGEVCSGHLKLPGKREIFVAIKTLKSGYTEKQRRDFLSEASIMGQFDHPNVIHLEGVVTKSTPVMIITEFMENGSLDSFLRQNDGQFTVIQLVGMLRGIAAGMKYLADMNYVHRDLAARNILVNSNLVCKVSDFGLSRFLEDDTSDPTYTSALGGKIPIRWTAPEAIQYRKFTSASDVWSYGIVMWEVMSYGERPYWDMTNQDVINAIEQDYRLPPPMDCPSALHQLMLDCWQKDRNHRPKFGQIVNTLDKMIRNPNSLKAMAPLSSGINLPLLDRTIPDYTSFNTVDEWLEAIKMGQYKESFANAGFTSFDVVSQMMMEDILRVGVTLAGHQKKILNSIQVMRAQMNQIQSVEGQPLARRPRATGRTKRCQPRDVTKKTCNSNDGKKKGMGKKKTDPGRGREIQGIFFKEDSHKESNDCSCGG

GSK3B = GSK3B (Homo sapiens, UniProt P49841); settings: read-out: %Inh GSK3B
[1] = target: JAK1(JH2domain-pseudokinase) (Homo sapiens, UniProt P23458); settings: read-out: %Inh JAK1(JH2domain-pseudokinase)
Sequence of JAK1(JH2domain-pseudokinase) (P23458 578-855 limits assumed): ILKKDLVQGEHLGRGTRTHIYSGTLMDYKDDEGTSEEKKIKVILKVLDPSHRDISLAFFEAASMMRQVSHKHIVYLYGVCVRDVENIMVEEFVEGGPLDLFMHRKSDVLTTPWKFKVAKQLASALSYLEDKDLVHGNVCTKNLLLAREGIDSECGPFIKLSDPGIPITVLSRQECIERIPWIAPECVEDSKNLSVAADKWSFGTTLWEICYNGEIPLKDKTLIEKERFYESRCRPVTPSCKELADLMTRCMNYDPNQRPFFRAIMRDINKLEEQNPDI

Sequence of AAK1 (Q2M2I8 whole entry): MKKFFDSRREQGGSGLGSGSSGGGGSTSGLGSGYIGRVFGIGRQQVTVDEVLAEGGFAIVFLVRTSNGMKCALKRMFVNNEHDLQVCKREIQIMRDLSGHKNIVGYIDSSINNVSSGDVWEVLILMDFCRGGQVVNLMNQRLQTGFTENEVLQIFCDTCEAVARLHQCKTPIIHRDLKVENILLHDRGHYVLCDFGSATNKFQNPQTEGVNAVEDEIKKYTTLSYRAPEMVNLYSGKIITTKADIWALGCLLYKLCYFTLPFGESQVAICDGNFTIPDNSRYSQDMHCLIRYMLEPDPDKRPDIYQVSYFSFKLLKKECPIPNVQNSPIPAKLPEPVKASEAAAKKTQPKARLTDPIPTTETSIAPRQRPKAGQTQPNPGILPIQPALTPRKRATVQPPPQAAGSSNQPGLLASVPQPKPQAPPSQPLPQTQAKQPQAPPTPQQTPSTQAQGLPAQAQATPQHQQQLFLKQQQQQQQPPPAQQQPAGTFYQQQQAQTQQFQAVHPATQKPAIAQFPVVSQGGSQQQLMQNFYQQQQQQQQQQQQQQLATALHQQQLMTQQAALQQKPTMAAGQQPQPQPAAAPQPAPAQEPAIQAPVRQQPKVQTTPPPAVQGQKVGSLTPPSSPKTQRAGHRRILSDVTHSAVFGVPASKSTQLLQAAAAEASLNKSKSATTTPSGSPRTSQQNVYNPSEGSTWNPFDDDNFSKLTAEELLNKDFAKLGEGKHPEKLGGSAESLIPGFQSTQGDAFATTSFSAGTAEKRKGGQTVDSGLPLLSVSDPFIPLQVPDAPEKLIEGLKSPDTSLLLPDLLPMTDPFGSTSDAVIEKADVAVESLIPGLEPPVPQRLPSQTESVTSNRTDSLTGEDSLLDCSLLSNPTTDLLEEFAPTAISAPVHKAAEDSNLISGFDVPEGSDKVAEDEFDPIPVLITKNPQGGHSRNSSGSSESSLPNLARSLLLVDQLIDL
Sequence of DMPK2 (Q6DT37 whole entry): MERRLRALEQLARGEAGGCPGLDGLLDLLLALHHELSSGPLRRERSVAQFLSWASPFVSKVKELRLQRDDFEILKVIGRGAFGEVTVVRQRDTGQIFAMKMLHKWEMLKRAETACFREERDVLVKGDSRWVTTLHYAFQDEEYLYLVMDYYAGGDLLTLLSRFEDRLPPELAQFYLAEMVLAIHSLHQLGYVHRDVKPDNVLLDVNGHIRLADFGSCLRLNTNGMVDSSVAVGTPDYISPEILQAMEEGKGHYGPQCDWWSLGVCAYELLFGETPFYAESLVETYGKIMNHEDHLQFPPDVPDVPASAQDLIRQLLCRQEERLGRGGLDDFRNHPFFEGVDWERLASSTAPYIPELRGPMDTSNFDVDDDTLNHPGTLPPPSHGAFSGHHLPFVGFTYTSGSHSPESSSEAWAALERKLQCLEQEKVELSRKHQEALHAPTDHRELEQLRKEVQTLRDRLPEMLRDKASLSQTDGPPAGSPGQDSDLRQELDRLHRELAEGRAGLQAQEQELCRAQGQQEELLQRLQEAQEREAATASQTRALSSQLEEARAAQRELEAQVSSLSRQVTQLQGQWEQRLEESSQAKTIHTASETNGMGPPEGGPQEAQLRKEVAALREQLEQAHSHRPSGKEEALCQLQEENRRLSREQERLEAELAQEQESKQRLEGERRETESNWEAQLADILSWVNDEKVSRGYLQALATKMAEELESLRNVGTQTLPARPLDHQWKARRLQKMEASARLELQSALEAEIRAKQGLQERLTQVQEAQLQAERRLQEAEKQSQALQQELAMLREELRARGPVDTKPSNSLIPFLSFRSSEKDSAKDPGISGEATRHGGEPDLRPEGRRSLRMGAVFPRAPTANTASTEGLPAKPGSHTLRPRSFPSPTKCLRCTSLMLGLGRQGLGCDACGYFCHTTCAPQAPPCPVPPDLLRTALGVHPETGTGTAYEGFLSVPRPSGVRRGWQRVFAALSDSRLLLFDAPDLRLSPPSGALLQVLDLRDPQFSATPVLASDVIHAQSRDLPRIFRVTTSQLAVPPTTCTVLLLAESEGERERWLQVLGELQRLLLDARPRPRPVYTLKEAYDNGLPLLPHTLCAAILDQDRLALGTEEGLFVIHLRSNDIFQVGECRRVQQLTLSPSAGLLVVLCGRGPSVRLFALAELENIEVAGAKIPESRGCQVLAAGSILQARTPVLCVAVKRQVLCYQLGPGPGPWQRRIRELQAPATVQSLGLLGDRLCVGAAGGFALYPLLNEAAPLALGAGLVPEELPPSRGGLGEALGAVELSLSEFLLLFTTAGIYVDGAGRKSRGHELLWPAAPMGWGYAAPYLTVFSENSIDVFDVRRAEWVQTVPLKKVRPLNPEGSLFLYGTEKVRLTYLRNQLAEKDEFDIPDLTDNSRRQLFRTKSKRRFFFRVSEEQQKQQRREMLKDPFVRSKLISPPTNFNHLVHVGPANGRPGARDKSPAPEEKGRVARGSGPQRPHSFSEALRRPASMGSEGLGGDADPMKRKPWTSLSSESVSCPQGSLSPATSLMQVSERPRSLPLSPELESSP
Sequence of AKT1 (P31749 whole entry): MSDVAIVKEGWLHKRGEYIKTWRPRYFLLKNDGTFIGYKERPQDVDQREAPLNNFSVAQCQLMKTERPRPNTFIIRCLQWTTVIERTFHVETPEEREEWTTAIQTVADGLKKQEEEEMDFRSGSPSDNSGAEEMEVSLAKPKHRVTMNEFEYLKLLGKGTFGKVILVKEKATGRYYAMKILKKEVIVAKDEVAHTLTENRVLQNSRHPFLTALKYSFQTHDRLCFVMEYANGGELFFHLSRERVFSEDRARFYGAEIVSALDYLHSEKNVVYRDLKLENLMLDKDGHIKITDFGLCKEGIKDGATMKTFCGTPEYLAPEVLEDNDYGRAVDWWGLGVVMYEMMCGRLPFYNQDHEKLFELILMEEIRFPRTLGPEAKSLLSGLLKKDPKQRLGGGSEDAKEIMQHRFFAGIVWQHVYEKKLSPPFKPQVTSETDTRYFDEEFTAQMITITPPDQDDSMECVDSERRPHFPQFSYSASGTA
Sequence of CSNK1G3 (Q9Y6M4 whole entry): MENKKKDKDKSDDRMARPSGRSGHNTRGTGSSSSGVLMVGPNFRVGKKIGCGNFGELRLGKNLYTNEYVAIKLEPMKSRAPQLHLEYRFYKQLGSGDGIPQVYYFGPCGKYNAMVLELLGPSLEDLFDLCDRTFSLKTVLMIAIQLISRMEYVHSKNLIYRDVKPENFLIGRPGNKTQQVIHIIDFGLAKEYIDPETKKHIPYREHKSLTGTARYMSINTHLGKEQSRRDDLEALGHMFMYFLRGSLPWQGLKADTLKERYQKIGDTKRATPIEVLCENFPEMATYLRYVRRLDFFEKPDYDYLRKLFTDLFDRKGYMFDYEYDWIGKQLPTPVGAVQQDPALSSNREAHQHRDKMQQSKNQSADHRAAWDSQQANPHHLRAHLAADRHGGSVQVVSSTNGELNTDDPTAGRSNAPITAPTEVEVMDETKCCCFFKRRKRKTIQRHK
Sequence of GSK3B (P49841 whole entry): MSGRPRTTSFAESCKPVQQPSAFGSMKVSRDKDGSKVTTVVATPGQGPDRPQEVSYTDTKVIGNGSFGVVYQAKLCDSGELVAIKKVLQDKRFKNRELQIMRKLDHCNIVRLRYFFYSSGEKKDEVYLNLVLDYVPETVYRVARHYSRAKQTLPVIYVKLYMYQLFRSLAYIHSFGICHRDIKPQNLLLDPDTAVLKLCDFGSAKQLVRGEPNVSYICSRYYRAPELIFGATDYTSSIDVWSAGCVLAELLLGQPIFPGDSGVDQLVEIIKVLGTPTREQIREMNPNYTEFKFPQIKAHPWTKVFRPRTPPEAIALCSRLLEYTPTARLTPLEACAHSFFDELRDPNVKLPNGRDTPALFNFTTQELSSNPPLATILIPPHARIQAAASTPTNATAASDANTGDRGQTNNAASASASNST

| SMILES | inhibition at 1 µM (AAK1) [%] | inhibition at 1 µM (AKT1) [%] | inhibition at 1 µM (CSNK1G3) [%] | inhibition at 1 µM (DDR2) [%] | inhibition at 1 µM (DMPK2) [%] | inhibition at 1 µM (EPHB2) [%] | inhibition at 1 µM (GSK3B) [%] | inhibition at 1 µM [1] [%] |
| --- | --- | --- | --- | --- | --- | --- | --- | --- |
| Cn1cc(-c2cnc(N)c3c(-c4ccc5c(c4)CCN5C(=O)Cc4ccccc4)csc23)cn1 [UNC10225012A] | 0 | 14 | 22 | 24 | 81 | 2 | 0 | 0 |
| CS(=O)(=O)Cc1ccc(Nc2nccc(-c3c(-c4cccc(NC(=O)C5CCCCC5)c4)nn4ncccc34)n2)cc1 [UNC10225159A] | 0 | 23 | 4 | 54 | 35 | 3 | 20 | 0 |
| Cc1ccc(NC(=O)Nc2cccc(C(F)(F)F)c2)cc1 [UNC10225187A] | 26 | 12 | 0 | 65 | 0 | 3 | 0 | 12 |
| COc1cccc(OC)c1C(=O)Nc1cccc(-c2nn3ccccc3c2-c2ccnc(Nc3cccc(F)c3)n2)c1 [UNC10225310A] | 0 | 4 | 3 | 57 | 84 | 0 | 0 | 4 |
| O=c1cc(N2CCOCC2)nc2n(Cc3cccc(Cl)c3Cl)c(C3CC3)nn12 [UNC10225469A] | 14 | 12 | 23 | 0 | 0 | 0 | 0 | 3 |
